Assays:
Experiment in all cases: relative viability (nuclei count vs DMSO), 5 days (fraction); higher = more cells survive
VE-821 + Alpelisib = compound: CS(=O)(=O)c1ccc(-c2cnc(N)c(C(=O)Nc3ccccc3)n2)cc1 [VE-821] + Cc1nc(NC(=O)N2CCC[C@H]2C(N)=O)sc1-c1ccnc(C(C)(C)C(F)(F)F)c1 [Alpelisib] (partner 2 µM)
In short: (§1)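 Each reported value is a median over duplicate plates. It expresses relative viability: treated-well nuclei count divided by vehicle-well nuclei count. Lung cancer cell lines in 1536-well plates were dosed by pin tool a day after seeding, alone with one drug or with a fixed anchor-drug dose plus five library-drug doses (not always all listed) in √10 steps, and nuclei were counted after 5 days.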

Vismodegib + Decitabine = compound: CS(=O)(=O)c1ccc(C(=O)Nc2ccc(Cl)c(-c3ccccn3)c2)c(Cl)c1 [Vismodegib] + Nc1ncn([C@H]2C[C@H](O)[C@@H](CO)O2)c(=O)n1 [Decitabine] (partner 2 µM)
In short: as §1

Ruxolitinib + Pictilisib = compound: N#CC[C@H](C1CCCC1)n1cc(-c2ncnc3[nH]ccc23)cn1 [Ruxolitinib] + CS(=O)(=O)N1CCN(Cc2cc3nc(-c4cccc5[nH]ncc45)nc(N4CCOCC4)c3s2)CC1 [Pictilisib] (partner 1 µM)
In short: as §1

Ruxolitinib + Phenformin = compound: N#CC[C@H](C1CCCC1)n1cc(-c2ncnc3[nH]ccc23)cn1 [Ruxolitinib] + N=C(N)NC(=N)NCCc1ccccc1 [Phenformin] (partner 250 µM)
In short: as §1

Cell Line | relative viability (VE-821 + Alpelisib; first compound 0.08 µM) | relative viability (VE-821 + Alpelisib; first compound 0.253 µM) | relative viability (VE-821 + Alpelisib; first compound 0.8 µM) | relative viability (VE-821 + Alpelisib; first compound 2.53 µM) | relative viability (VE-821 + Alpelisib; first compound 8 µM) | relative viability (Vismodegib + Decitabine; first compound 0.08 µM) | relative viability (Vismodegib + Decitabine; first compound 0.253 µM) | relative viability (Vismodegib + Decitabine; first compound 0.8 µM) | relative viability (Vismodegib + Decitabine; first compound 2.53 µM) | relative viability (Vismodegib + Decitabine; first compound 8 µM) | relative viability (Ruxolitinib + Pictilisib; first compound 0.08 µM) | relative viability (Ruxolitinib + Pictilisib; first compound 0.253 µM) | relative viability (Ruxolitinib + Pictilisib; first compound 0.8 µM) | relative viability (Ruxolitinib + Pictilisib; first compound 2.53 µM) | relative viability (Ruxolitinib + Pictilisib; first compound 8 µM) | relative viability (Ruxolitinib + Phenformin; first compound 0.08 µM) | relative viability (Ruxolitinib + Phenformin; first compound 0.253 µM) | relative viability (Ruxolitinib + Phenformin; first compound 0.8 µM) | relative viability (Ruxolitinib + Phenformin; first compound 2.53 µM) | relative viability (Ruxolitinib + Phenformin; first compound 8 µM)
NCI-H1666 | 1.03 | 1.02 | 0.887 | 0.926 | 0.58 | 0.763 | 0.774 | 0.739 | 0.676 | 0.69 | 0.384 | 0.453 | 0.483 | 0.415 | 0.611 | 0.606 | 0.538 | 0.519 | 0.564 | 0.512
NCI-H460 | 0.561 | 0.394 | 0.23 | 0.279 | 0.0265 | 0.603 | 0.467 | 0.544 | 0.486 | 0.54 | 0.179 | 0.309 | 0.307 | 0.386 | 0.114 | 0.484 | 0.54 | 0.549 | 0.443 | 0.445
NCI-H1792 | 0.846 | 0.919 | 0.584 | 0.587 | 0.681 | 0.513 | 0.478 | 0.532 | 0.481 | 0.521 | 0.259 | 0.289 | 0.278 | 0.197 | 0.214 | 0.253 | 0.241 | 0.261 | 0.146 | 0.128
NCI-H2087 | 1.18 | 0.945 | 1.4 | 1.06 | 1.06 | 0.267 | 0.25 | 0.266 | 0.296 | 0.233 | 0.798 | 0.937 | 0.645 | 0.335 | 0.842 | 0.531 | 0.388 | 0.523 | 0.409 | 0.382
NCI-H1355 | 0.911 | 0.803 | 0.562 | 0.8 | 0.531 | 0.354 | 0.333 | 0.347 | 0.372 | 0.364 | 0.385 | 0.391 | 0.386 | 0.329 | 0.352 | 0.418 | 0.418 | 0.46 | 0.394 | 0.416
NCI-H838 | 1.1 | 0.955 | 0.911 | 0.966 | 0.907 | 0.464 | 0.43 | 0.502 | 0.431 | 0.609 | 0.464 | 0.433 | 0.402 | 0.24 | 0.278 | 0.602 | 0.54 | 0.465 | 0.266 | 0.263
SW 1573 | 1.07 | 0.713 | 0.745 | 0.888 | 0.774 |  | 0.425 | 0.509 | 0.519 | 0.615 | 0.495 | 0.425 | 0.546 | 0.445 | 0.429 | 0.419 | 0.324 | 0.417 | 0.308 | 0.369
NCI-H2085 | 1 | 0.853 | 0.713 | 0.984 | 0.922 | 0.548 | 0.461 | 0.544 | 0.56 | 0.561 | 0.564 | 0.469 | 0.419 | 0.463 | 0.611 | 0.758 | 0.774 | 0.831 | 0.627 | 0.642
NCI-H1651 | 1.09 | 1.08 | 0.702 | 1.01 | 0.849 | 0.581 | 0.617 | 0.682 | 0.528 | 0.579 | 0.742 | 0.599 | 0.727 | 0.477 | 0.664 | 0.313 | 0.275 | 0.351 | 0.3 | 0.354
NCI-H1993 | 0.704 | 0.757 | 0.655 | 0.702 | 0.633 | 0.524 | 0.68 | 0.588 | 0.587 | 0.543 | 0.809 | 0.754 | 0.855 | 0.781 | 0.846 | 0.497 | 0.526 | 0.473 | 0.572 | 0.51
NCI-H2126 | 0.757 | 0.744 | 0.625 | 0.747 | 0.645 | 0.598 | 0.544 | 0.592 | 0.549 | 0.611 | 0.493 | 0.472 | 0.531 | 0.55 | 0.582 | 0.518 | 0.474 | 0.568 | 0.528 | 0.522
NCI-H1793 | 0.689 | 0.681 | 0.497 | 0.727 | 0.687 |  | 0.475 | 0.58 | 0.476 | 0.579 | 0.311 | 0.409 | 0.25 | 0.38 | 0.282 | 0.361 | 0.345 | 0.368 | 0.338 | 0.304
LC-2-ad | 0.991 | 0.846 | 0.926 | 1.01 | 0.686 | 0.746 | 0.717 | 0.834 | 0.693 | 0.777 | 0.41 | 0.313 | 0.519 | 0.362 | 0.211 |  | 0.515 | 0.561 | 0.553 | 0.456
NCI-H647 | 1.17 | 1.07 | 0.944 | 0.901 | 0.424 | 0.38 | 0.327 | 0.38 | 0.385 | 0.409 |  | 0.358 | 0.449 | 0.362 | 0.514 | 0.481 | 0.517 | 0.502 | 0.481 | 0.531
LCLC-97TM1 | 0.315 | 0.244 | 0.22 | 0.292 | 0.222 | 0.214 | 0.25 | 0.351 | 0.229 | 0.223 | 0.182 | 0.153 | 0.214 | 0.158 | 0.198 | 0.438 | 0.43 | 0.507 | 0.428 | 0.378
LK-2 | 1.14 | 1.17 | 0.925 | 1.29 | 0.672 | 0.356 | 0.253 | 0.282 | 0.283 | 0.28 |  | 0.595 | 0.61 | 0.741 | 0.673 | 0.337 | 0.499 | 0.359 | 0.292 | 0.692
BEN | 1.09 | 1.01 | 0.877 | 0.968 | 0.976 | 0.684 | 0.691 | 0.648 | 0.697 | 0.782 | 0.494 | 0.583 | 0.647 | 0.53 | 0.584 | 0.232 | 0.281 | 0.244 | 0.239 | 0.255
NCI-H650 | 1.19 | 1.25 | 0.932 | 1.19 | 1.1 | 0.33 | 0.314 | 0.329 | 0.344 | 0.298 |  | 0.881 | 1.21 | 0.699 | 0.649 |  | 0.449 | 0.519 | 0.351 | 0.342
EKVX | 0.977 | 0.842 | 0.535 | 0.8 | 0.61 |  | 0.383 | 0.327 | 0.297 | 0.336 | 0.323 | 0.385 | 0.451 | 0.44 | 0.521 | 0.275 | 0.209 | 0.204 | 0.221 | 0.235
NCI-H1395 | 1.46 | 1.08 | 0.705 | 1.14 | 0.659 | 0.736 | 0.696 | 0.693 | 0.71 | 0.727 |  | 0.553 | 0.645 | 0.584 | 0.601 | 0.435 | 0.418 | 0.489 | 0.455 | 0.408
NCI-H2009 | 1.11 | 1.18 | 1.12 | 1.19 | 1.28 | 0.363 | 0.377 | 0.366 | 0.416 | 0.344 | 0.913 | 0.901 | 0.987 | 0.508 | 0.658 | 0.414 | 0.443 | 0.535 | 0.423 | 0.297
NCI-H23 | 0.734 | 0.69 | 0.512 | 0.624 | 0.416 | 0.362 | 0.321 | 0.329 | 0.323 | 0.358 | 0.519 | 0.474 | 0.603 | 0.439 | 0.415 | 0.892 | 0.807 | 0.804 | 0.67 | 0.727
LU99A | 0.585 | 0.512 | 0.444 | 0.414 | 0.277 | 0.944 | 0.844 | 0.887 | 0.835 | 0.781 | 0.321 | 0.315 | 0.401 | 0.339 | 0.316 | 1.06 | 0.931 | 0.801 | 0.782 | 0.755
NCI-H1915 | 1.13 | 1.03 | 1.06 | 1.16 | 0.941 | 0.265 | 0.264 | 0.236 | 0.245 | 0.258 | 0.894 | 0.925 | 0.952 | 0.803 | 0.835 | 0.375 | 0.41 | 0.384 | 0.358 | 0.343
EMC-BAC-2 | 0.877 | 0.782 | 0.721 | 0.75 | 0.757 | 1 | 0.926 | 0.964 | 0.9 | 1.04 | 0.534 | 0.495 | 0.57 | 0.495 | 0.384 | 0.534 | 0.471 | 0.555 | 0.44 | 0.353
201T | 1.11 | 1.03 | 0.878 | 1.09 | 0.85 | 0.826 | 0.813 | 0.869 | 0.848 | 0.846 | 0.745 | 0.687 | 0.75 | 0.826 | 0.8 | 0.44 | 0.455 | 0.473 | 0.429 | 0.503
NCI-H1944 | 0.954 | 0.804 | 0.53 | 0.885 | 0.452 | 0.428 | 0.413 | 0.456 |  | 0.405 | 0.362 | 0.334 | 0.381 | 0.323 | 0.332 | 0.201 | 0.202 | 0.215 | 0.164 | 0.151

Reference: the supplement of paper PMC10307832
